Reference: US20110275138A1, “KETOSE 3-EPIMERASE, ITS PREPARATION AND USES” (KABUSHIKI KAISHA HAYASHIBARA SEIBUTSU KAGAKU KENKYUJO, priority 2005, published 2011)
Read-outs that look alike come from different tables or passages of the source. Marks after values point to notes of the source that are not given here.

Assays:
ketose 3-epimerase [1] = format: biochemical, Rhizobium leguminosarum ATCC14480
ketose 3-epimerase [2] = assay: Substrate specificity of ketose 3-epimerase (epimer content by HPLC); format: biochemical, Rhizobium leguminosarum ATCC14480; details: for Epimer content in the reaction products: 1% (w/v) substrate, pH 8.0, 1 mM MnCl2, 45° C., 17 hours
Experimental: By using the purified preparation of the ketose 3-epimerase, obtained by the method in Experiment 2, the substrate specificity of the enzyme was investigated using various D- or L-ketohexoses and D- or L-ketopentoses as substrates. Substrate solutions were prepared by dissolving D-fructose, D-psicose, D-tagatose, D-sorbose, D-xylulose, D-ribulose, L-fructose, L-psicose, L-tagatose, L-sorbose, L-xylulose, or L-ribulose into 20 mM Tris-HCl buffer (pH 8.0) containing 1 mM MnCl2 to give a final concentration of 1% (w/v), respectively. Then, each substrate solution was further admixed with 2 units/g-substrate or 20 units/g-substrate, on a dry solid basis, as D-psicose 3-epimerase activity of the purified preparation of the ketose 3-epimerase, obtained by the method in Experiment 2; and followed by the enzyme reaction at 45° C. for 17 hours. After stopping the reaction by keeping the reaction mixture at 100° C. for 10 min, the content of epimer formed from each substrate was measured using high performance liquid chromatography (hereinafter, abbreviated as “HPLC”). HPLC was carried out under the following conditions: • Column: MCI GEL CK08EC, commercialized by Mitsubishi Chemical Corporation, Tokyo, Japan; • Eluent: water; • Column temperature: 75° C. • Flow rate: 0.6 ml/min • Detection: RID-10A, a differential refractometer commercialized by Shimadzu Corporation, Kyoto, Japan;

[3] = Ketose 3-epimerase activity assay: D-fructose formed from D-psicose; format: biochemical; details: D-psicose 3-epimerase activity, per purification step
Experimental: The activity of the ketose 3 -epimerase of the present invention can be assayed by measuring the amount of D-fructose formed from D-psicose as a substrate. Specifically, the activity of the enzyme can be assayed as follows: A substrate solution is prepared by dissolving D-psicose in 20 mM Tris-HCl buffer (pH 8.0) containing 1 mM MnCl2 to give a final concentration of 1% (w/v). Two milliliters of the substrate solution is admixed with 0.5 ml of the enzyme solution, and the mixture solution is incubated at 45° C. for 30 min. The reaction is stopped by keeping the reaction mixture in boiling water bath for 5 min. Successively, 1 ml of the reaction mixture is admixed with 1 ml of deionized water and 1 ml NADP solution, prepared by dissolving 2.37 g of NADP, 5.93 g of ATP, and 1 g of MgSO4 7H2O into 500 ml of 0.3 M triethanolamine-HCl buffer (pH 7.6). […] After keeping the resulting mixture at room temperature for 30 min, absorbance of the mixture at 340 nm was measured for determining the amount of D-fructose formed by the reaction. […]
The following experiments explain the present invention in detail. In the following experiments, D-psicose 3-epimerase activity, converting D-psicose into D-fructose, was assayed according to the aforementioned assay method and expressed as ketose 3-epimerase activity.

[4] = Optimum pH and optimum temperature of the enzyme; format: biochemical; details: for Optimum temperature: pH 8.0, 30 min
Experimental: The activity of the ketose 3 -epimerase of the present invention can be assayed by measuring the amount of D-fructose formed from D-psicose as a substrate. Specifically, the activity of the enzyme can be assayed as follows: A substrate solution is prepared by dissolving D-psicose in 20 mM Tris-HCl buffer (pH 8.0) containing 1 mM MnCl2 to give a final concentration of 1% (w/v). Two milliliters of the substrate solution is admixed with 0.5 ml of the enzyme solution, and the mixture solution is incubated at 45° C. for 30 min. The reaction is stopped by keeping the reaction mixture in boiling water bath for 5 min. Successively, 1 ml of the reaction mixture is admixed with 1 ml of deionized water and 1 ml NADP solution, prepared by dissolving 2.37 g of NADP, 5.93 g of ATP, and 1 g of MgSO4 7H2O into 500 ml of 0.3 M triethanolamine-HCl buffer (pH 7.6). While, Enzyme solution A and B, described below, were respectively diluted 4-fold with 0.3 M triethanolamine-HCl buffer (pH 7.6) and then both solutions were mixed in equal amount to make into a mixed enzyme solution. Then, 40 ml of the mixed enzyme solution was admixed with the mixture prepared above. After keeping the resulting mixture at room temperature for 30 min, absorbance of the mixture at 340 nm was measured for determining the amount of D-fructose formed by the reaction. […]
According to the methods described in Experiment 2, the soluble fraction of cell homogenate, obtained by the method in Experiment 5, was partially purified by salting out, dialysis and successive column chromatographies on “SEPABEADS” gel and “BUTYL-TOYOPEARL” gel, and the partially purified enzyme preparation was analyzed according to the methods in Experiment 3. […]

[5] = 1 mM metal salt, substrate solution without 1 mM MnCl2, None = 100
[6] = 1 mM, in comparison with the case without metal ions
[7] = 1 mM metal salt, substrate solution without 1 mM MnCl2, None = 100, D-fructose determined by HPLC

Row | Molecule | Relative activity (ketose 3-epimerase [1]; [5]) [%] | Epimer content in the reaction products (ketose 3-epimerase [2]; enzyme 2 units/g-substrate) [%] | Epimer content in the reaction products (ketose 3-epimerase [2]; enzyme 20 units/g-substrate) [%] | Effect on the ketose 3-epimerase activity (in words) (ketose 3-epimerase [1]; [6]) | also measured
1 | [Cl][Al]([Cl])[Cl] [AlCl3] | 86 |  |  |  | 
2 | O=C(CO)[C@H](O)[C@@H](O)[C@H](O)CO [D-Sorbose, D-sorbose] |  | 0 | 0.1 |  | Action of the ketose 3-epimerase on the substrate (in words) (ketose 3-epimerase [2]): slightly catalyzed
3 | [Cl][Mn][Cl] [MnCl2] | 283 |  |  | Activated | Relative activity (ketose 3-epimerase [1]; 1 mM metal salt, substrate solution without 1 mM MnCl2, None = 100, listed as Mn^2+): about 280%
4 | [Ba+2].[Cl-].[Cl-] [BaCl2] | 96 |  |  |  | 
5 | O=C(CO)[C@@H](O)[C@H](O)[C@@H](O)CO [L-Sorbose, L-sorbose] |  | 0 | 6.2 |  | 
6 | [Cl-].[Cl-].[Co+2] [CoCl2] |  |  |  |  | Effect on the ketose 3-epimerase activity (in words) (ketose 3-epimerase [1]): not activated; Relative activity (ketose 3-epimerase [1]): 101%
7 | [Cl][Fe][Cl] [FeCl2] |  |  |  |  | Relative activity (ketose 3-epimerase [1]; [7]): 67%
8 | O=C(CO)[C@@H](O)[C@H](O)[C@H](O)CO [D-Fructose, D-fructose] |  | 17.7 | 25.8 |  | Action of the ketose 3-epimerase on the substrate (in words) (ketose 3-epimerase [2]): most efficiently catalyzes; Epimer content in the reaction products (ketose 3-epimerase [2]; enzyme 2 units/g-substrate, listed as D-fructose): about 18%
9 | [Cl-].[Cl-].[Sr+2] [SrCl2] | 103 |  |  | not activated | 
10 | [Cl][Cu][Cl] [CuCl2] | 60 |  |  | slightly inhibited | 
11 | [Cl][Ni][Cl] [NiCl2] | 64 |  |  | slightly inhibited | 
12 | [Ca+2].[Cl-].[Cl-] [CaCl2] | 89 |  |  |  | 
13 | O=C(CO)[C@H](O)[C@@H](O)CO [L-Xylulose, L-xylulose] |  | 1.6 | 10.3 |  | Action of the ketose 3-epimerase on the substrate (in words) (ketose 3-epimerase [2]): efficiently catalyzed
14 | O=C(CO)[C@@H](O)[C@@H](O)CO [L-Ribulose, L-ribulose] |  | 19.2 | 58.4 |  | Action of the ketose 3-epimerase on the substrate (in words) (ketose 3-epimerase [2]): efficiently catalyzed
15 | [Cl-].[Cl-].[Zn+2] [ZnCl2] | 13 |  |  | remarkable inhibited | 
16 | O=C(CO)[C@@H](O)[C@@H](O)[C@H](O)CO [D-Tagatose, D-tagatose] |  | 0.6 | 5.3 |  | Action of the ketose 3-epimerase on the substrate (in words) (ketose 3-epimerase [2]): slightly catalyzed
17 | O=C(CO)[C@H](O)[C@@H](O)[C@@H](O)CO [L-Fructose, L-fructose] |  | 0 | 1.4 |  | 
18 | [Cl-].[Cl-].[Mg+2] [MgCl2] | 141 |  |  | Activated | Relative activity (ketose 3-epimerase [1]; 1 mM metal salt, substrate solution without 1 mM MnCl2, None = 100, listed as Mg^2+): about 140%
19 | O=C(CO)[C@H](O)[C@H](O)[C@@H](O)CO [L-Tagatose, L-tagatose] |  | 3.2 | 26.7 |  | 
20 | O=C(CO)[C@H](O)[C@H](O)CO [D-Ribulose, D-ribulose] |  | 17.1 | 43.4 |  | Action of the ketose 3-epimerase on the substrate (in words) (ketose 3-epimerase [2]): efficiently catalyzed
21 | O=C(O)CN(CCN(CC(=O)O)CC(=O)O)CC(=O)O [EDTA] |  |  |  |  | Effect on the ketose 3-epimerase activity (in words) (ketose 3-epimerase [1]): not inhibited; Relative activity (ketose 3-epimerase [1]): 97%
22 | [Cl][Sn][Cl] [SnCl2] | 114 |  |  | slightly activated | 
23 | O=C(CO)[C@@H](O)[C@H](O)CO [D-Xylulose, D-xylulose] |  | 2.3 | 19.6 |  | Action of the ketose 3-epimerase on the substrate (in words) (ketose 3-epimerase [2]): efficiently catalyzed
24 | [Cl][Pb][Cl] [PbCl2] | 69 |  |  | slightly inhibited | 
25 | [Cl][Hg][Cl] [HgCl2, mercury chloride] |  |  |  | remarkable inhibited | Relative activity (ketose 3-epimerase [1]; [7]): 35%
26 | [Cl][Fe]([Cl])[Cl] [FeCl3] |  |  |  |  | Relative activity (ketose 3-epimerase [1]; [7]): 64%
27 | O=C(CO)[C@@H](O)[C@@H](O)[C@@H](O)CO [L-Psicose, L-psicose] |  | 1.6 | 11.3 |  | 
28 | O=C(CO)[C@H](O)[C@H](O)[C@H](O)CO [D-Psicose, D-psicose] |  | 39.4 | 74.1 |  | Action of the ketose 3-epimerase on the substrate (in words) (ketose 3-epimerase [2]): most efficiently catalyzes; Epimer content in the reaction products (ketose 3-epimerase [2]; enzyme 2 units/g-substrate, listed as D-psicose): about 39%
29 | ketose 3-epimerase: purified ketose 3-epimerase from Rhizobium leguminosarum ATCC14480, 282 amino acid residues represented by SEQ ID NO: 2 (protein, listed as Rhizobium leguminosarum) MEGFGVHTSMWTMNWDRAGAEKAIAGAVHYKMDFIEIALLNAPAVDAKHTRALLEKNKLRAVCSLGLPEHAWASVRPDAAIEHLKVAIEKTAEMNAEALSGVIFGGIGERTGVPPTQGEYDNIAKVLDVAAKHARKHGIQLGVEAVNRYENHLINSAQQAVDMVERVGADNIFVHLDTYHMNIEEKGAANGILIARDHLKYIHLSESDRGTPGYGNIPWDAIYAALAAIGFKGGLAMESFINMPPEVAYGLAVWRPVARDMEEVMDKGLPFLRNKAEQYGLI |  |  |  |  | Specific activity of ketohexose 3-epimerase [3]: 41.6 units/mg-protein; Optimum pH ([4]; 45° C., 30 min, in the presence of 1 mM Mn2+ ion): 9.0-9.5*; Optimum temperature ([4]; in the absence of 1 mM Mn2+ ion): 50 °C; Optimum temperature ([4]; in the presence of 1 mM Mn2+ ion): (65° C.)*
